Experiment: xn = mol fraction of the nth substance listed
Conditions: 101 kPa

Cn1cc[n+](CCO)c1.O=S(=O)([O-])C(F)(F)C(F)(F)C(F)(F)C(F)(F)F + O
Conditions | electrical conductivity, 298.15 K [S/m] | viscosity, 298.15 K [mPa·s] | viscosity, 308.15 K [mPa·s] | viscosity, 318.15 K [mPa·s]
x1 = 0.0178 | 4.26 | 2.036 | 1.632 | 1.344
x1 = 0.0195 | 4.4 | 2.133 | 1.689 | 1.381
x1 = 0.0212 | 4.52 | 2.326 | 1.847 | 1.517
x1 = 0.0232 | – | – | 1.972 | –
x1 = 0.0253 | 4.75 | 2.66 | 2.104 | 1.719
x1 = 0.0274 | – | – | 2.2 | 1.77
x1 = 0.0297 | 4.91 | 3.09 | 2.42 | 1.975
x1 = 0.0321 | 4.97 | 3.3 | 2.6 | –
x1 = 0.0348 | 5 | 3.56 | 2.78 | 2.227
x1 = 0.0376 | 5.1 | 3.7 | 2.87 | 2.274
x1 = 0.0405 | 5.1 | 4.19 | 3.25 | 2.58
x1 = 0.0438 | 5.2 | 4.43 | – | –
x1 = 0.0474 | 5.2 | 4.87 | 3.73 | 2.95
x1 = 0.0511 | – | – | 4.07 | 3.2
x1 = 0.0551 | 5.2 | 5.75 | 4.36 | 3.42
x1 = 0.0596 | – | – | 4.76 | –
x1 = 0.0644 | 5.1 | 6.82 | – | 3.98
x1 = 0.07 | 5.1 | 7.66 | – | 4.42
x1 = 0.0756 | 5 | 8.21 | – | 4.67
x1 = 0.0824 | 4.88 | 9.23 | 6.8 | 5.16
x1 = 0.0899 | 4.73 | 10.36 | – | 5.75
x1 = 0.0983 | – | – | 8.34 | –
x1 = 0.1075 | 4.31 | 12.91 | 9.29 | 6.93
x1 = 0.1178 | 4.05 | 14.88 | 10.63 | 7.86
x1 = 0.1302 | 3.73 | 16.91 | – | –
x1 = 0.1441 | 3.39 | 19.81 | – | 10.06
x1 = 0.1621 | 2.98 | 23.25 | 16.05 | 11.56
x1 = 0.1816 | – | – | 18.72 | 13.38
x1 = 0.2068 | 2.13 | 32.1 | – | 15.23
x1 = 0.2329 | 1.74 | 38.8 | 25.7 | –
x1 = 0.2751 | 1.26 | 50.6 | 32.8 | 22.44
x1 = 0.3277 | 0.85 | 63.8 | 40.6 | 27.4
x1 = 0.3954 | 0.52 | 87.1 | – | 35.4
x1 = 0.5075 | 0.241 | 133.7 | 79.6 | 50.5
x1 = 0.6777 | – | – | 143.5 | 86.8
x1 = 1 | 0.033 | 832 | 411 | 224

CC[n+]1ccn(C)c1.O=C([O-])C(F)(F)C(F)(F)C(F)(F)C(F)(F)F + O
viscosity [mPa·s]
Conditions | 298.15 K | 308.15 K | 318.15 K
x1 = 0.0222 | – | 2.016 | –
x1 = 0.0264 | 2.88 | 2.221 | 1.773
x1 = 0.0311 | 3.36 | – | 2.036
x1 = 0.0364 | 3.86 | 2.91 | 2.271
x1 = 0.0428 | 4.62 | – | 2.64
x1 = 0.0496 | 5.3 | 3.92 | 3.01
x1 = 0.0581 | 5.96 | 4.37 | 3.35
x1 = 0.067 | 6.84 | 4.93 | 3.7
x1 = 0.0727 | 7.23 | 5.22 | 3.93
x1 = 0.0857 | 8.38 | – | 4.5
x1 = 0.1009 | – | 7.34 | 5.4
x1 = 0.133 | 12.96 | 9.04 | 6.58
x1 = 0.1458 | 13.63 | – | –
x1 = 0.1625 | 14.99 | 10.35 | –
x1 = 0.1788 | 16.31 | 11.24 | 8.1
x1 = 0.201 | 17.94 | – | 8.85
x1 = 0.2367 | – | 14.29 | 10.22
x1 = 0.262 | 22.43 | – | 10.88
x1 = 0.3007 | 25.2 | – | 12.16
x1 = 0.4265 | – | 24.3 | 17.06
x1 = 0.7012 | 73.6 | 46.9 | 31.8
x1 = 1 | 107.5 | 65.9 | 43.1

Source: a compilation of properties of binary mixtures (doi:10.1016/j.molliq.2020.112489)
